Molecular target: Aβ42 (Homo sapiens, UniProt P05067)
Experiment: Th-T (thioflavin-T) assay of Aβ42 aggregation
Type: biochemical

Aβ42, sequence (P05067 672-713): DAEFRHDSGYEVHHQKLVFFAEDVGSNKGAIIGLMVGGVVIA

Compound: C=C1CCC2C(C)(CCC=C(C)C)C(O)CCC2(C)C1Cc1c(OC)oc(CO)c(C(=O)OC)c1=O (stereo not drawn) [Compound 13]
- Fig. 7a Th-T reading, mean of three wells (column suffix _20, reading M101): 1.039
- Fig. 7a Th-T reading, mean of three wells (column suffix _20, reading M102): 1.036
- Fig. 7a Th-T reading, mean of three wells (column suffix _20, reading M103): 1.04
- Fig. 7a Th-T reading, mean of three wells (column suffix _20, reading M104): 1.043
- Fig. 7a Th-T reading, mean of three wells (column suffix _20, reading M105): 1.05
- Fig. 7a Th-T reading, mean of three wells (column suffix _20, reading M106): 1.043
- Th-T fluorescence, mean of three wells (Fig. 7a) (column suffix _50, measurement M19): 0.2105
- Th-T fluorescence, mean of three wells (Fig. 7a) (column suffix _50, measurement M20): 0.229
- Th-T fluorescence, mean of three wells (Fig. 7a) (column suffix _50, measurement M21): 0.2537
- Th-T fluorescence, mean of three wells (Fig. 7a) (column suffix _50, measurement M22): 0.2749
- Th-T fluorescence, mean of three wells (Fig. 7a) (column suffix _50, measurement M23): 0.2968
- Th-T fluorescence, mean of three wells (Fig. 7a) (column suffix _50, measurement M24): 0.3154
- Th-T fluorescence, mean of three wells (Fig. 7a) (column suffix _50, measurement M25): 0.3353
- Th-T fluorescence, mean of three wells (Fig. 7a) (column suffix _50, measurement M26): 0.3518
- Th-T fluorescence, mean of three wells (Fig. 7a) (column suffix _50, measurement M27): 0.3638
- Th-T fluorescence, mean of three wells (Fig. 7a) (column suffix _50, measurement M28): 0.3753
- Th-T fluorescence, mean of three wells (Fig. 7a) (column suffix _50, measurement M29): 0.3846
- Th-T assay signal, mean of three wells (Fig. 7a) (column suffix _50, reading M1): 0.5109
- Th-T assay signal, mean of three wells (Fig. 7a) (column suffix _50, reading M2): 0.3694
- Th-T assay signal, mean of three wells (Fig. 7a) (column suffix _50, reading M3): 0.2987
- Th-T assay signal, mean of three wells (Fig. 7a) (column suffix _50, reading M4): 0.2463
- Th-T assay signal, mean of three wells (Fig. 7a) (column suffix _50, reading M5): 0.2182
- Th-T assay signal, mean of three wells (Fig. 7a) (column suffix _50, reading M6): 0.2003
- Th-T assay signal, mean of three wells (Fig. 7a) (column suffix _50, reading M7): 0.1883
- Th-T assay signal, mean of three wells (Fig. 7a) (column suffix _50, reading M8): 0.1784
- Th-T assay signal, mean of three wells (Fig. 7a) (column suffix _50, reading M9): 0.17
- Th-T assay signal, mean of three wells (Fig. 7a) (column suffix _50, reading M10): 0.1689
- Th-T assay signal, mean of three wells (Fig. 7a) (column suffix _50, reading M11): 0.1659
- Th-T assay signal, mean of three wells (Fig. 7a) (column suffix _50, reading M12): 0.1664
- Th-T assay signal, mean of three wells (Fig. 7a) (column suffix _50, reading M13): 0.1648
- Th-T assay signal, mean of three wells (Fig. 7a) (column suffix _50, reading M14): 0.1691
- Th-T assay signal, mean of three wells (Fig. 7a) (column suffix _50, reading M15): 0.173
- Th-T assay signal, mean of three wells (Fig. 7a) (column suffix _50, reading M16): 0.1783
- Th-T assay signal, mean of three wells (Fig. 7a) (column suffix _50, reading M17): 0.1848
- Th-T assay signal, mean of three wells (Fig. 7a) (column suffix _50, reading M18): 0.1952
- Fig. 7a Th-T reading, mean of three wells (column suffix _50, reading M85): 0.4685
- Fig. 7a Th-T reading, mean of three wells (column suffix _50, reading M86): 0.4692
- Fig. 7a Th-T reading, mean of three wells (column suffix _50, reading M87): 0.4718
- Fig. 7a Th-T reading, mean of three wells (column suffix _50, reading M88): 0.4737
- Fig. 7a Th-T reading, mean of three wells (column suffix _50, reading M89): 0.4759
- Fig. 7a Th-T reading, mean of three wells (column suffix _50, reading M90): 0.4735
- Fig. 7a Th-T reading, mean of three wells (column suffix _50, reading M91): 0.4713
- Fig. 7a Th-T reading, mean of three wells (column suffix _50, reading M92): 0.4706
- Fig. 7a Th-T reading, mean of three wells (column suffix _50, reading M93): 0.4737
- Fig. 7a Th-T reading, mean of three wells (column suffix _50, reading M94): 0.4775
- Fig. 7a Th-T reading, mean of three wells (column suffix _50, reading M95): 0.4772
- Fig. 7a Th-T reading, mean of three wells (column suffix _50, reading M96): 0.4744
- Fig. 7a Th-T reading, mean of three wells (column suffix _50, reading M97): 0.4689
- Fig. 7a Th-T reading, mean of three wells (column suffix _50, reading M98): 0.4718
- Fig. 7a Th-T reading, mean of three wells (column suffix _50, reading M99): 0.4742
- Fig. 7a Th-T reading, mean of three wells (column suffix _50, reading M100): 0.4783
- Fig. 7a Th-T reading, mean of three wells (column suffix _50, reading M101): 0.4707
- Fig. 7a Th-T reading, mean of three wells (column suffix _50, reading M102): 0.471
- Fig. 7a Th-T reading, mean of three wells (column suffix _50, reading M103): 0.4747
- Fig. 7a Th-T reading, mean of three wells (column suffix _50, reading M104): 0.4762
- Fig. 7a Th-T reading, mean of three wells (column suffix _50, reading M105): 0.477
- Fig. 7a Th-T reading, mean of three wells (column suffix _50, reading M106): 0.4781
- Th-T fluorescence, mean of three wells (compound at 10, reading M41 of time course): 1.211
- Th-T fluorescence, mean of three wells (compound at 10, reading M42 of time course): 1.2969
- Th-T fluorescence, mean of three wells (compound at 10, reading M43 of time course): 1.3329
- Th-T fluorescence, mean of three wells (compound at 10, reading M44 of time course): 1.377
- Th-T fluorescence, mean of three wells (compound at 10, reading M45 of time course): 1.405
- Th-T fluorescence, mean of three wells (compound at 10, reading M46 of time course): 1.436
- Th-T fluorescence, mean of three wells (compound at 10, reading M47 of time course): 1.47
- Th-T fluorescence, mean of three wells (compound at 10, reading M48 of time course): 1.487
- Th-T fluorescence, mean of three wells (compound at 10, reading M49 of time course): 1.496
- Th-T fluorescence, mean of three wells (compound at 10, reading M50 of time course): 1.5062
- Th-T fluorescence, mean of three wells (compound at 10, reading M51 of time course): 1.523
- Th-T fluorescence, mean of three wells (compound at 10, reading M52 of time course): 1.537
- Th-T fluorescence, mean of three wells (compound at 10, reading M53 of time course): 1.531
- Th-T fluorescence, mean of three wells (compound at 10, reading M54 of time course): 1.542
- Th-T fluorescence, mean of three wells (compound at 10, reading M55 of time course): 1.541
- Th-T fluorescence, mean of three wells (compound at 10, reading M56 of time course): 1.545
- Th-T fluorescence, mean of three wells (compound at 10, reading M57 of time course): 1.551
- Th-T fluorescence, mean of three wells (compound at 10, reading M58 of time course): 1.551
- Th-T fluorescence, mean of three wells (compound at 10, reading M59 of time course): 1.549
- Th-T fluorescence, mean of three wells (compound at 10, reading M60 of time course): 1.541
- Th-T fluorescence, mean of three wells (compound at 10, reading M61 of time course): 1.554
- Th-T fluorescence, mean of three wells (compound at 10, reading M62 of time course): 1.56
- Th-T fluorescence, mean of three wells (compound at 20, reading M41 of time course): 0.3859
- Th-T fluorescence, mean of three wells (compound at 20, reading M42 of time course): 0.4228
- Th-T fluorescence, mean of three wells (compound at 20, reading M43 of time course): 0.4511
- Th-T fluorescence, mean of three wells (compound at 20, reading M44 of time course): 0.4829
- Th-T fluorescence, mean of three wells (compound at 20, reading M45 of time course): 0.5147
- Th-T fluorescence, mean of three wells (compound at 20, reading M46 of time course): 0.5564
- Th-T fluorescence, mean of three wells (compound at 20, reading M47 of time course): 0.5957
- Th-T fluorescence, mean of three wells (compound at 20, reading M48 of time course): 0.6248
- Th-T fluorescence, mean of three wells (compound at 20, reading M49 of time course): 0.6553
- Th-T fluorescence, mean of three wells (compound at 20, reading M50 of time course): 0.6948
- Th-T fluorescence, mean of three wells (compound at 20, reading M51 of time course): 0.7326
- Th-T fluorescence, mean of three wells (compound at 20, reading M52 of time course): 0.7726
- Th-T fluorescence, mean of three wells (compound at 20, reading M53 of time course): 0.8004
- Th-T fluorescence, mean of three wells (compound at 20, reading M54 of time course): 0.8343
- Th-T fluorescence, mean of three wells (compound at 20, reading M55 of time course): 0.8641
- Th-T fluorescence, mean of three wells (compound at 20, reading M56 of time course): 0.9063
- Th-T fluorescence, mean of three wells (compound at 20, reading M57 of time course): 0.941
- Th-T fluorescence, mean of three wells (compound at 20, reading M58 of time course): 0.9604
- Th-T fluorescence, mean of three wells (compound at 20, reading M59 of time course): 0.9808
- Th-T fluorescence, mean of three wells (compound at 20, reading M60 of time course): 0.9918
- Th-T fluorescence, mean of three wells (compound at 20, reading M61 of time course): 1.018
- Th-T fluorescence, mean of three wells (compound at 20, reading M62 of time course): 1.031
- Th-T fluorescence, mean of three wells (compound at 50, reading M41 of time course): 0.4483
- Th-T fluorescence, mean of three wells (compound at 50, reading M42 of time course): 0.4529
- Th-T fluorescence, mean of three wells (compound at 50, reading M43 of time course): 0.452
- Th-T fluorescence, mean of three wells (compound at 50, reading M44 of time course): 0.4555
- Th-T fluorescence, mean of three wells (compound at 50, reading M45 of time course): 0.4534
- Th-T fluorescence, mean of three wells (compound at 50, reading M46 of time course): 0.4569
- Th-T fluorescence, mean of three wells (compound at 50, reading M47 of time course): 0.4654
- Th-T fluorescence, mean of three wells (compound at 50, reading M48 of time course): 0.4625
- Th-T fluorescence, mean of three wells (compound at 50, reading M49 of time course): 0.4637
- Th-T fluorescence, mean of three wells (compound at 50, reading M50 of time course): 0.4613
- Th-T fluorescence, mean of three wells (compound at 50, reading M51 of time course): 0.4698
- Th-T fluorescence, mean of three wells (compound at 50, reading M52 of time course): 0.4696
- Th-T fluorescence, mean of three wells (compound at 50, reading M53 of time course): 0.4691

Reference: PMC7156458, “Synthetic biology based construction of biological activity-related library of fungal decalin-containing diterpenoid pyrones” (Nature Communications, 2020)
